Assay results taken from article PMC12090182, “Repurposing of the RIPK1-Selective Benzo[1,4]oxazepin-4-one Scaffold for the Development of a Type III LIMK1/2 Inhibitor” (ACS Chemical Biology, 2025).

How the values were obtained:
Test in all cases: biochemical
Assay type in all cases: binding
[1] = biological target: 468 kinases including some pathogenic mutants (Homo sapiens, UniProt Q13882); conditions: BRK (Entrez PTK6), 100 nM; read-out: Percent Control
[2] = biological target: 468 kinases including some pathogenic mutants (Homo sapiens, UniProt O15264); conditions: p38-delta (Entrez MAPK13), 1000 nM; read-out: Percent Control
[3] = biological target: 468 kinases including some pathogenic mutants (Homo sapiens, UniProt P78362); conditions: SRPK2 (Entrez SRPK2), 1000 nM; read-out: Percent Control
[4] = biological target: 468 kinases including some pathogenic mutants (Homo sapiens, UniProt Q8NEV4); conditions: MYO3A (Entrez MYO3A), 100 nM; read-out: Percent Control
468 kinases including some pathogenic mutants (Homo sapiens, UniProt Q8NEV4), sequence (Q8NEV4 whole entry, change not shown): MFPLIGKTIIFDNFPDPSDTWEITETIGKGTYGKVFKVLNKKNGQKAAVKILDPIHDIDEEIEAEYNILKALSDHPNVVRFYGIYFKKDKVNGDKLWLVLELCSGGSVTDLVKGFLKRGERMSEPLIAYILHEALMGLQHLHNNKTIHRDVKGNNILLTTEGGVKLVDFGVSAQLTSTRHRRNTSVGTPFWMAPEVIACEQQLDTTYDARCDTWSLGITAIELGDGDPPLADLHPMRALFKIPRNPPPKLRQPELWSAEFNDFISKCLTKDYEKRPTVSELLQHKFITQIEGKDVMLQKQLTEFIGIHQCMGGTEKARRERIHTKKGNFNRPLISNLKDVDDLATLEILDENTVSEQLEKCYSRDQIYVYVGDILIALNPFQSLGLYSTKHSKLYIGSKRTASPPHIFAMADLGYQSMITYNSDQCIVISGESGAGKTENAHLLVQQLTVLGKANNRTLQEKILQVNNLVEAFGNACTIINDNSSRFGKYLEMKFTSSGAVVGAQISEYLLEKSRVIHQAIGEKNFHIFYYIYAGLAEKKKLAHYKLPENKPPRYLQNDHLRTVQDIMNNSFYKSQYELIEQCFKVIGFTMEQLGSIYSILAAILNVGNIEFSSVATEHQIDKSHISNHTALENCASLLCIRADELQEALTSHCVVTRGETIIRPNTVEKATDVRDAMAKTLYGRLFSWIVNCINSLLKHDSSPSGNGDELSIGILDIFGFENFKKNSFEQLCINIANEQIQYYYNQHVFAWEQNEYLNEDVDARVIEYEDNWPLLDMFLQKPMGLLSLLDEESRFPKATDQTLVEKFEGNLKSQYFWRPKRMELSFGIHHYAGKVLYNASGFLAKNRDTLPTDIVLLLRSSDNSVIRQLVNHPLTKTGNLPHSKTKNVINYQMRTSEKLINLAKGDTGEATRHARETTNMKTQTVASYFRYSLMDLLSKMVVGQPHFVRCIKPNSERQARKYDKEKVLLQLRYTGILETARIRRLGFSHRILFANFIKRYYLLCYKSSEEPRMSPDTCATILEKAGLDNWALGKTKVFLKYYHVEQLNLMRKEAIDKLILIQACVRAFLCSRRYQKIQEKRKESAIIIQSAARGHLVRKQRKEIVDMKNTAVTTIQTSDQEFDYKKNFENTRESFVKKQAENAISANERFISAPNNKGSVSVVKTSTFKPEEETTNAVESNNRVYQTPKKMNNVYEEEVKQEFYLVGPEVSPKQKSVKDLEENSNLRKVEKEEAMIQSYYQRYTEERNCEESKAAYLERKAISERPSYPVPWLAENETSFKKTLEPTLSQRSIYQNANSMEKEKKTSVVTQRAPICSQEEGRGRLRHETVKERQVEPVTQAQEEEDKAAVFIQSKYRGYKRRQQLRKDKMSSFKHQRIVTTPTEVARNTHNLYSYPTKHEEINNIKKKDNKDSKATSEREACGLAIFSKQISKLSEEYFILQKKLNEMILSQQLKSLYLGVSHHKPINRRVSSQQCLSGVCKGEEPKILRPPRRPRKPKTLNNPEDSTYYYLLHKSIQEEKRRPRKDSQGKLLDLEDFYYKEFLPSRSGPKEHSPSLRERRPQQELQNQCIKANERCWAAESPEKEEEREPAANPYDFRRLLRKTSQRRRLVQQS

[5] = biological target: 468 kinases including some pathogenic mutants (Homo sapiens, UniProt Q9BQI3); conditions: EIF2AK1 (Entrez EIF2AK1), 100 nM; read-out: Percent Control
[6] = biological target: 468 kinases including some pathogenic mutants (Homo sapiens, UniProt P36897); conditions: TGFBR1 (Entrez TGFBR1), 1000 nM; read-out: Percent Control
468 kinases including some pathogenic mutants (Homo sapiens, UniProt P36897), sequence (P36897 34-503, change not shown): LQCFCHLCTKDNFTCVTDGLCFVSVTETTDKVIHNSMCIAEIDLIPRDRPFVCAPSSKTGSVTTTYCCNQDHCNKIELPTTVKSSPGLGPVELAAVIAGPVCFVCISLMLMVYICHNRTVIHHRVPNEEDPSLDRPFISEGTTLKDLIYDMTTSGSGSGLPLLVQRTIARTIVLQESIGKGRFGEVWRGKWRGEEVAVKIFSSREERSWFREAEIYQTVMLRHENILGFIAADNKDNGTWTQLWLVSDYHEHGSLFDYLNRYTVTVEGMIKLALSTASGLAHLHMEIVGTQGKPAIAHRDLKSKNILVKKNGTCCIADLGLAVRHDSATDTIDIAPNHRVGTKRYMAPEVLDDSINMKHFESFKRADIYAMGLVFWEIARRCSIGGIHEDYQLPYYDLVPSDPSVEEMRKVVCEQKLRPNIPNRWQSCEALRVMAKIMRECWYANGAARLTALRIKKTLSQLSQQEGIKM

[7] = biological target: 468 kinases including some pathogenic mutants (Homo sapiens, UniProt O60674); conditions: JAK2(JH1domain-catalytic) (Entrez JAK2), 1000 nM; read-out: Percent Control
[8] = biological target: 468 kinases including some pathogenic mutants (Homo sapiens, UniProt Q9BVS4); conditions: RIOK2 (Entrez RIOK2), 1000 nM; read-out: Percent Control
[9] = biological target: 468 kinases including some pathogenic mutants (Homo sapiens, UniProt P29322); conditions: EPHA8 (Entrez EPHA8), 100 nM; read-out: Percent Control
[10] = biological target: 468 kinases including some pathogenic mutants (Homo sapiens, UniProt Q8NG66); conditions: NEK11 (Entrez NEK11), 100 nM; read-out: Percent Control
[11] = biological target: 468 kinases including some pathogenic mutants (Homo sapiens, UniProt P42681); conditions: TXK (Entrez TXK), 100 nM; read-out: Percent Control
[12] = biological target: 468 kinases including some pathogenic mutants (Homo sapiens, UniProt Q9UM73, L1196M); conditions: read-out: Percent Control
[13] = biological target: 468 kinases including some pathogenic mutants (Homo sapiens, UniProt Q9UPE1); conditions: SRPK3 (Entrez SRPK3), 1000 nM; read-out: Percent Control
[14] = biological target: 468 kinases including some pathogenic mutants (Homo sapiens, UniProt P10721, T670I/V559D); conditions: read-out: Percent Control
[15] = biological target: 468 kinases including some pathogenic mutants (Homo sapiens, UniProt P42336); conditions: PIK3CA (Entrez PIK3CA), 100 nM; read-out: Percent Control
[16] = biological target: 468 kinases including some pathogenic mutants (Homo sapiens, UniProt Q02779); conditions: MLK2 (Entrez MAP3K10), 100 nM; read-out: Percent Control
[17] = biological target: 468 kinases including some pathogenic mutants (Homo sapiens, UniProt Q13233); conditions: MAP3K1 (Entrez MAP3K1), 1000 nM; read-out: Percent Control
[18] = biological target: 468 kinases including some pathogenic mutants (Homo sapiens, UniProt Q6P2M8); conditions: CAMK1B (Entrez PNCK), 100 nM; read-out: Percent Control
[19] = biological target: 468 kinases including some pathogenic mutants (Homo sapiens, UniProt Q9Y6R4); conditions: MAP3K4 (Entrez MAP3K4), 100 nM; read-out: Percent Control
[20] = biological target: 468 kinases including some pathogenic mutants (Homo sapiens, UniProt Q13523); conditions: PRP4 (Entrez PRPF4B), 1000 nM; read-out: Percent Control
468 kinases including some pathogenic mutants (Homo sapiens, UniProt Q13523), sequence (Q13523 whole entry, change not shown): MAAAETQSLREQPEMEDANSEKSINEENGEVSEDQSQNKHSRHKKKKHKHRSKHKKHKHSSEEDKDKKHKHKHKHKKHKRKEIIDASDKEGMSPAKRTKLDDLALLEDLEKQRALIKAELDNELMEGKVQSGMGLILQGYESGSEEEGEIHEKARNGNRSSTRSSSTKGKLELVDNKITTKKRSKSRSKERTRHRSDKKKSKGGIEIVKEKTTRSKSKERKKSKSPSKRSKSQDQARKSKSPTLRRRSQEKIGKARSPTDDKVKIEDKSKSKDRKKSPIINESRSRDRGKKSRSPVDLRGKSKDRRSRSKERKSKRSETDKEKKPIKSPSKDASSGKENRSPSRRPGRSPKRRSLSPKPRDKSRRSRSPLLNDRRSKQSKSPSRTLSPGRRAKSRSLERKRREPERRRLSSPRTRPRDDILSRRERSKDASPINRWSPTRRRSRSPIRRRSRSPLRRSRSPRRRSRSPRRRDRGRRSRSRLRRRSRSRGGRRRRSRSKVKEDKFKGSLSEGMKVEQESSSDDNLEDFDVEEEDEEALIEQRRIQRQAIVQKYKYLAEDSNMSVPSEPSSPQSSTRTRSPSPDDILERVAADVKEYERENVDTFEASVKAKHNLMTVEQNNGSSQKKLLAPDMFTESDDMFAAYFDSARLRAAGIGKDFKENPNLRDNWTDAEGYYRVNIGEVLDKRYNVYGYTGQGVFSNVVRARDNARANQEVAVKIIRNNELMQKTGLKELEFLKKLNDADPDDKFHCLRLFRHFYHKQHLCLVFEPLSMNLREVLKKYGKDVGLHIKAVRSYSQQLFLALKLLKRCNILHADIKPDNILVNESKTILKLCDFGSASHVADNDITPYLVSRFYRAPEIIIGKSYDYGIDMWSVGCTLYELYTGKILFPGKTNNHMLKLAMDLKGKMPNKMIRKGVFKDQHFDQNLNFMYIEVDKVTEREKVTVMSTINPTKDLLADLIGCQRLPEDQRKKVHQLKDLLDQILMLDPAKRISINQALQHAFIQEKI

[21] = biological target: 468 kinases including some pathogenic mutants (Homo sapiens, UniProt Q9NYY3); conditions: PLK2 (Entrez PLK2), 1000 nM; read-out: Percent Control
[22] = biological target: 468 kinases including some pathogenic mutants (Homo sapiens, UniProt P29376); conditions: LTK (Entrez LTK), 100 nM; read-out: Percent Control
468 kinases including some pathogenic mutants (Homo sapiens, UniProt P29376), sequence (P29376 17-864, stated change not applied): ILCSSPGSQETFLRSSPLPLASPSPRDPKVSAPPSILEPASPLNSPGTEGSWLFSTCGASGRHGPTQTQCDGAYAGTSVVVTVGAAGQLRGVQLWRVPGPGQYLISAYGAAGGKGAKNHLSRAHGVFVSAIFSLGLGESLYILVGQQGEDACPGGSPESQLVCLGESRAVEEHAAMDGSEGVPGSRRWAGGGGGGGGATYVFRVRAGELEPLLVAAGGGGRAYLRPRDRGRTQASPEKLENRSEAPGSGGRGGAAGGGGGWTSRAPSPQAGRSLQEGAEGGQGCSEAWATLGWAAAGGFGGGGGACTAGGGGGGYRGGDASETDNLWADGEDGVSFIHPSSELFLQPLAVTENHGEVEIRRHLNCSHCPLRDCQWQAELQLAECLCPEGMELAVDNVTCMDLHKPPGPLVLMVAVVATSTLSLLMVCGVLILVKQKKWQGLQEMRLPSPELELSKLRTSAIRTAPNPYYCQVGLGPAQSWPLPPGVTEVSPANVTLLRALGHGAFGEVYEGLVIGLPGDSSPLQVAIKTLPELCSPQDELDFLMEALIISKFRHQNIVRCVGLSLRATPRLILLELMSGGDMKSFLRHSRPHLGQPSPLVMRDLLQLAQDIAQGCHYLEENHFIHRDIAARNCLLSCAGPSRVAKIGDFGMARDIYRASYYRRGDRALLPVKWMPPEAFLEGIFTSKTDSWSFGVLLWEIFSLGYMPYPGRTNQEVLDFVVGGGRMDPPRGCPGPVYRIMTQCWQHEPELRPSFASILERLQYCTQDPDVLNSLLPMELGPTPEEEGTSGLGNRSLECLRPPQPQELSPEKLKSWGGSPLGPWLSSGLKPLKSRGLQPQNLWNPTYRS

[23] = biological target: 468 kinases including some pathogenic mutants (Homo sapiens, UniProt P07949, M918T); conditions: read-out: Percent Control
[24] = biological target: 468 kinases including some pathogenic mutants (Homo sapiens, UniProt O43318); conditions: TAK1 (Entrez MAP3K7), 100 nM; read-out: Percent Control
468 kinases including some pathogenic mutants (Homo sapiens, UniProt O43318), sequence (O43318 whole entry, change not shown): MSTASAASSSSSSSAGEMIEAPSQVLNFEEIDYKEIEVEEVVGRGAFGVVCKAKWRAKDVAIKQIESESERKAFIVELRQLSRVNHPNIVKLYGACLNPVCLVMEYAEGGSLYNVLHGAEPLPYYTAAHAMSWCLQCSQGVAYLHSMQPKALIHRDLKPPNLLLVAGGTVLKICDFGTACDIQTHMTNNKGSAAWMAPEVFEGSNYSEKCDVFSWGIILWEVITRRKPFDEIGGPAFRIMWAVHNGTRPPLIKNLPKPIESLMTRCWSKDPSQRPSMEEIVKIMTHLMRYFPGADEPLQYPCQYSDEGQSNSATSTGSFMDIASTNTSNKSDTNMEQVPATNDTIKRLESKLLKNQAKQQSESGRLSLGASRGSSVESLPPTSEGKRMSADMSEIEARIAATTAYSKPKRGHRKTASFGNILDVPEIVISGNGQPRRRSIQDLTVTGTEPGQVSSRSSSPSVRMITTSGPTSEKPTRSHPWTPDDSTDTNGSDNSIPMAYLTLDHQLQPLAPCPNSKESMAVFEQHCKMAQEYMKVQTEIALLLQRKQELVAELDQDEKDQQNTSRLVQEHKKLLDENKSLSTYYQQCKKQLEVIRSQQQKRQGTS

[25] = biological target: 468 kinases including some pathogenic mutants (Homo sapiens, UniProt P15735); conditions: PHKG2 (Entrez PHKG2), 100 nM; read-out: Percent Control
[26] = biological target: 468 kinases including some pathogenic mutants (Homo sapiens, UniProt Q13555); conditions: CAMK2G (Entrez CAMK2G), 100 nM; read-out: Percent Control
468 kinases including some pathogenic mutants (Homo sapiens, UniProt Q13555), sequence (Q13555 whole entry, change not shown): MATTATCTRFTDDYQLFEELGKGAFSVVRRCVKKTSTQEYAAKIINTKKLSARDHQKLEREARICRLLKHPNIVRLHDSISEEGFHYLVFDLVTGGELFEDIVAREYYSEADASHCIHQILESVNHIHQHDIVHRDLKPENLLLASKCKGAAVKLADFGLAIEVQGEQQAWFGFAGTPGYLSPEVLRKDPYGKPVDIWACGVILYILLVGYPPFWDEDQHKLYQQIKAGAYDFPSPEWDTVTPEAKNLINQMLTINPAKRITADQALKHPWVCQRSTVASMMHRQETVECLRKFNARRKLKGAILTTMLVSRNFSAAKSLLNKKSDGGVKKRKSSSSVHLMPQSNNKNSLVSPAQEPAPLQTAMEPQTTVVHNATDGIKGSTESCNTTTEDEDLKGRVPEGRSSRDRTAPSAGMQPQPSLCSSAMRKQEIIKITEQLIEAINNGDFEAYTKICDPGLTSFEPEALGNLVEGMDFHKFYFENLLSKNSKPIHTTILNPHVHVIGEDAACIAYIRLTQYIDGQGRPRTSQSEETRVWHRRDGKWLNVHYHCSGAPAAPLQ

[27] = biological target: 468 kinases including some pathogenic mutants (Homo sapiens, UniProt Q13188); conditions: MST2 (Entrez STK3), 100 nM; read-out: Percent Control
[28] = biological target: 468 kinases including some pathogenic mutants (Homo sapiens, UniProt P42680); conditions: TEC (Entrez TEC), 1000 nM; read-out: Percent Control
[29] = biological target: 468 kinases including some pathogenic mutants (Homo sapiens, UniProt P49840); conditions: GSK3A (Entrez GSK3A), 100 nM; read-out: Percent Control

CN1C(=O)[C@@H](N2CCc3c(nn(Cc4ccccc4)c3C(N)=O)C2=O)COc2cc(Cl)ccc21 [Compound 10, (S)-2-benzyl-6-(8-chloro-5-methyl-4-oxo-2,3,4,5-tetrahydrobenzo[b][1,4]oxazepin-3-yl)-7-oxo-4,5,6,7-tetrahydro-2H-pyrazolo[3,4-c]pyridine-3-carboxamide]
remaining activity at 0.1 µM [1]: 81% | remaining activity at 1 µM [2]: 100% | remaining activity at 1 µM [3]: 100% | remaining activity at 0.1 µM [4]: 83% | remaining activity at 0.1 µM [5]: 100% | remaining activity at 1 µM [6]: 100% | remaining activity at 1 µM [7]: 100% | remaining activity at 1 µM [8]: 100% | remaining activity at 0.1 µM [9]: 87% | remaining activity at 0.1 µM [10]: 76% | remaining activity at 0.1 µM [11]: 88% | remaining activity at 0.1 µM [12]: 89% | remaining activity at 1 µM [13]: 100% | remaining activity at 1 µM [14]: 100% | remaining activity at 0.1 µM [15]: 71% | remaining activity at 0.1 µM [16]: 64% | remaining activity at 1 µM [17]: 100% | remaining activity at 0.1 µM [18]: 79% | remaining activity at 0.1 µM [19]: 79% | remaining activity at 1 µM [20]: 100% | remaining activity at 1 µM [21]: 100% | remaining activity at 0.1 µM [22]: 54% | remaining activity at 0.1 µM [23]: 82% | remaining activity at 0.1 µM [24]: 100% | remaining activity at 0.1 µM [25]: 62% | remaining activity at 0.1 µM [26]: 78% | remaining activity at 0.1 µM [27]: 64% | remaining activity at 1 µM [28]: 100% | remaining activity at 0.1 µM [29]: 100%
